The record followed here is ChEMBL document CHEMBL2074009, “Possible involvement of P-glycoprotein in biliary excretion of CPT-11 in rats” (Drug Metab Dispos, 1999).

The target in this assay is Multidrug resistance protein 1a (Rattus norvegicus) (UniProt Q6PSM0). The assay is described as follows: TP_TRANSPORTER: uptake (high affinity, inhibited by PSC-833, Verapamil and Cyclosporin A) in bile canalicular membrane vesicles from SD rat. In kind it is functional, cell membranes. To be noted: Sprague-Dawley, Bile canalicular membrane vesicle.
Chain of Multidrug resistance protein 1a (Rattus norvegicus) (Q6PSM0 as listed by the source): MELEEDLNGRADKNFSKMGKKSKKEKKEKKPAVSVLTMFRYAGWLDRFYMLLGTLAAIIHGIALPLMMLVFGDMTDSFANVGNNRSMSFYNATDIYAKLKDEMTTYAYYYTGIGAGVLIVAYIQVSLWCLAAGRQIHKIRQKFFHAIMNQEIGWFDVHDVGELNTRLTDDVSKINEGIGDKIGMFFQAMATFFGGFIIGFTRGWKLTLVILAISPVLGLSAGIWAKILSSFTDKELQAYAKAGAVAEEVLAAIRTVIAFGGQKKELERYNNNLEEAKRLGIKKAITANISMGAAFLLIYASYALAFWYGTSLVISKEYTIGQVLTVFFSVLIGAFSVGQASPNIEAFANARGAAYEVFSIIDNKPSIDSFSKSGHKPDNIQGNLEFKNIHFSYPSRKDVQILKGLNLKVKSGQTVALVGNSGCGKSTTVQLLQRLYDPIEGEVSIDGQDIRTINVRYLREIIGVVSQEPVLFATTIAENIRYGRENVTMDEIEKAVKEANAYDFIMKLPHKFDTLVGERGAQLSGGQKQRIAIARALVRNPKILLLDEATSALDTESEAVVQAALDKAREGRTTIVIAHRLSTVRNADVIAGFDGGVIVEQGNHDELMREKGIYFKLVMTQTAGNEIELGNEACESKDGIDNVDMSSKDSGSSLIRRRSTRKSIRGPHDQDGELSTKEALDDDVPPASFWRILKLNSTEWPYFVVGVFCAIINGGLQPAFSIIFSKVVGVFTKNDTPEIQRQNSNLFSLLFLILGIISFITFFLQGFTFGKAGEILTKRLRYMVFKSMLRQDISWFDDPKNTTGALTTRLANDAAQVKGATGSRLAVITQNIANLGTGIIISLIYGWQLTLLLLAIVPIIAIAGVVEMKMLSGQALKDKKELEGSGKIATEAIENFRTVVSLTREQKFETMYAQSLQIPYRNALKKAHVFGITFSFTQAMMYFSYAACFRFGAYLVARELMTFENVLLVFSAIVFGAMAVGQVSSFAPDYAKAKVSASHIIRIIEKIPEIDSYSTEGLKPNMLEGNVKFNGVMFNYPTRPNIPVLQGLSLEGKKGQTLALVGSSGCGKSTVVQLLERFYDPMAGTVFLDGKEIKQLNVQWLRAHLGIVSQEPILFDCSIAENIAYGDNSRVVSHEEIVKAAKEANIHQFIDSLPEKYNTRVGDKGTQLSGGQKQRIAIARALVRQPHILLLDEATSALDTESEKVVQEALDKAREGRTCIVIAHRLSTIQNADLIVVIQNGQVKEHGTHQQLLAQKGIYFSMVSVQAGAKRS

Turning to `CCc1c2c(nc3ccc(OC(=O)N4CCC(N5CCCCC5)CC4)cc13)-c1cc([C@@](O)(CC)C(=O)O)c(CO)c(=O)n1C2`, the Activity entry was “substrate [+]”.
